± gives the expanded uncertainty stated by the source.
Conditions: Liquid, Variable volume cell

CCCCCCCCCCCCCCCCCCCC [eicosane]
Conditions | mass density [kg/m3]
323.65 K, 7300 kPa | 771 ± 8
323.65 K, 14900 kPa | 777 ± 8
323.65 K, 21400 kPa | 784 ± 8
323.65 K, 27400 kPa | 787 ± 8
323.65 K, 34200 kPa | 789 ± 8
422.85 K, 7400 kPa | 711 ± 7
422.85 K, 14300 kPa | 719 ± 7
422.85 K, 20600 kPa | 723 ± 7
422.85 K, 27900 kPa | 730 ± 7
422.85 K, 34600 kPa | 735 ± 7
422.85 K, 54200 kPa | 748 ± 8
422.85 K, 81600 kPa | 765 ± 8
422.85 K, 109200 kPa | 781 ± 8
422.85 K, 136100 kPa | 792 ± 8
422.85 K, 169500 kPa | 806 ± 8
422.85 K, 203100 kPa | 818 ± 8
422.85 K, 235500 kPa | 829 ± 8
422.85 K, 260000 kPa | 837 ± 8
522.55 K, 16400 kPa | 661 ± 7
522.55 K, 28300 kPa | 676 ± 7
522.55 K, 41900 kPa | 691 ± 7
522.55 K, 55500 kPa | 706 ± 7
522.55 K, 69600 kPa | 719 ± 7
522.55 K, 82500 kPa | 727 ± 7
522.55 K, 109200 kPa | 744 ± 7
522.55 K, 138200 kPa | 763 ± 8
522.55 K, 173100 kPa | 777 ± 8
522.55 K, 204700 kPa | 791 ± 8
522.55 K, 239800 kPa | 805 ± 8
522.55 K, 258000 kPa | 810 ± 8

CCCCCCCCCCCCCCCC [hexadecane]
Conditions | mass density [kg/m3]
323.65 K, 14900 kPa | 758 ± 8
323.65 K, 27900 kPa | 769 ± 8
323.65 K, 41500 kPa | 779 ± 8
323.65 K, 55500 kPa | 787 ± 8
323.65 K, 69400 kPa | 792 ± 8
323.65 K, 81300 kPa | 799 ± 8
323.65 K, 109700 kPa | 807 ± 8
422.85 K, 14100 kPa | 700 ± 7
422.85 K, 27900 kPa | 713 ± 7
422.85 K, 41200 kPa | 724 ± 7
422.85 K, 55500 kPa | 734 ± 7
422.85 K, 69800 kPa | 743 ± 7
422.85 K, 82800 kPa | 750 ± 8
422.85 K, 108800 kPa | 765 ± 8
422.85 K, 136900 kPa | 778 ± 8
422.85 K, 170700 kPa | 792 ± 8
422.85 K, 204300 kPa | 804 ± 8
422.85 K, 236500 kPa | 815 ± 8
422.85 K, 262300 kPa | 823 ± 8
522.55 K, 15100 kPa | 643 ± 6
522.55 K, 27100 kPa | 660 ± 7
522.55 K, 42000 kPa | 675 ± 7
522.55 K, 55400 kPa | 687 ± 7
522.55 K, 69100 kPa | 698 ± 7
522.55 K, 82100 kPa | 707 ± 7
522.55 K, 107900 kPa | 723 ± 7
522.55 K, 135800 kPa | 738 ± 7
522.55 K, 170100 kPa | 755 ± 8
522.55 K, 203300 kPa | 769 ± 8
522.55 K, 235800 kPa | 782 ± 8
522.55 K, 255000 kPa | 788 ± 8

CCCCCCCCCCCCCCCCCC [octadecane]
Conditions | mass density [kg/m3]
323.65 K, 7000 kPa | 764 ± 8
323.65 K, 14400 kPa | 769 ± 8
323.65 K, 28300 kPa | 778 ± 8
323.65 K, 42200 kPa | 788 ± 8
323.65 K, 55600 kPa | 797 ± 8
323.65 K, 68900 kPa | 800 ± 8
422.85 K, 7700 kPa | 702 ± 7
422.85 K, 15100 kPa | 711 ± 7
422.85 K, 29400 kPa | 724 ± 7
422.85 K, 42500 kPa | 732 ± 7
422.85 K, 56100 kPa | 741 ± 7
422.85 K, 73200 kPa | 752 ± 8
422.85 K, 84500 kPa | 761 ± 8
422.85 K, 110000 kPa | 774 ± 8
422.85 K, 138500 kPa | 787 ± 8
422.85 K, 171700 kPa | 801 ± 8
422.85 K, 206100 kPa | 813 ± 8
422.85 K, 235500 kPa | 823 ± 8
422.85 K, 255900 kPa | 829 ± 8
522.55 K, 15300 kPa | 651 ± 7
522.55 K, 29400 kPa | 668 ± 7
522.55 K, 43200 kPa | 681 ± 7
522.55 K, 56400 kPa | 692 ± 7
522.55 K, 70800 kPa | 703 ± 7
522.55 K, 84400 kPa | 712 ± 7
522.55 K, 110000 kPa | 727 ± 7
522.55 K, 137800 kPa | 742 ± 7
522.55 K, 170400 kPa | 757 ± 8
522.55 K, 205300 kPa | 771 ± 8
522.55 K, 235700 kPa | 782 ± 8
522.55 K, 257000 kPa | 790 ± 8

From the NIST ThermoML archive (doi:10.1016/j.fluid.2011.08.020)
